According to PubChem BioAssay (NCI):
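96-well plates; 48 h exposure; 5 concentrations. Endpoints by linear interpolation between flanking doses. Not reached: highest tested concentration assigned. Abbreviation: GI50, concentration required for 50% inhibition of growth. TGI is the concentration that stops growth completely.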

Columns and labels:
Test in all cases: growth of human tumour cells (NCI), 48 h
786-0 renal = tested on: 786-0 renal
A498 renal = tested on: A498 renal
A549 NSCLC = tested on: A549 NSCLC
ACHN renal = tested on: ACHN renal
BT-549 breast = tested on: BT-549 breast
CAKI-1 renal = tested on: CAKI-1 renal
CCRF-CEM leukemia = tested on: CCRF-CEM leukemia
COLO 205 colon = tested on: COLO 205 colon
DU-145 prostate = tested on: DU-145 prostate
EKVX NSCLC = tested on: EKVX NSCLC
HCC-2998 colon = tested on: HCC-2998 colon
HCT-116 colon = tested on: HCT-116 colon
HCT-15 colon = tested on: HCT-15 colon
HOP-62 NSCLC = tested on: HOP-62 NSCLC
HOP-92 NSCLC = tested on: HOP-92 NSCLC
HS 578T breast = tested on: HS 578T breast
HT29 colon = tested on: HT29 colon
IGROV1 ovarian = tested on: IGROV1 ovarian
K-562 leukemia = tested on: K-562 leukemia
KM12 colon = tested on: KM12 colon
LOX IMVI melanoma = tested on: LOX IMVI melanoma
M14 melanoma = tested on: M14 melanoma
MALME-3M melanoma = tested on: MALME-3M melanoma
MCF7 breast = tested on: MCF7 breast
MDA-MB-231 breast = tested on: MDA-MB-231 breast
MDA-MB-435 = tested on: MDA-MB-435
MOLT-4 leukemia = tested on: MOLT-4 leukemia
NCI-H226 lung = tested on: NCI-H226 lung

For Nc1ccc(-c2ccc(-c3nc4ccccc4[nH]3)cc2)cc1, the GI50 (786-0 renal) was 8.78 µM, the TGI (786-0 renal) was 84.9 µM and the GI50 (A498 renal) was 33.6 µM. For the same compound, the TGI (A498 renal) was greater than 100 µM, the TGI (A549 NSCLC) was greater than 95.5 µM and the GI50 (ACHN renal) was 13.6 µM. For the same compound, the TGI (ACHN renal) was greater than 92.8 µM, the GI50 (BT-549 breast) was 13.2 µM and the TGI (BT-549 breast) was greater than 61.6 µM. The TGI (CAKI-1 renal) was greater than 54.7 µM, the GI50 (CCRF-CEM leukemia) was 2.77 µM and the TGI (CCRF-CEM leukemia) was greater than 78.7 µM. For the same compound, the GI50 (COLO 205 colon) was 0.32 µM, the GI50 (DU-145 prostate) was 10.6 µM and the TGI (DU-145 prostate) was greater than 100 µM. For the same compound, the GI50 (EKVX NSCLC) was 1.47 µM, the TGI (EKVX NSCLC) was greater than 78.2 µM and the GI50 (HCC-2998 colon) was 0.105 µM. The TGI (HCC-2998 colon) was 0.438 µM, the GI50 (HCT-116 colon) was 2.45 µM and the TGI (HCT-116 colon) was greater than 100 µM. It also gave a GI50 (HCT-15 colon) of 8.09 µM, a TGI (HCT-15 colon) greater than 100 µM and a GI50 (HOP-62 NSCLC) of 3.83 µM. For the same compound, the TGI (HOP-62 NSCLC) was 56.6 µM, the GI50 (HOP-92 NSCLC) was 18.6 µM and the TGI (HOP-92 NSCLC) was 71.2 µM. It also gave a GI50 (HS 578T breast) of 31.1 µM, a TGI (HS 578T breast) greater than 100 µM and a GI50 (HT29 colon) of 0.606 µM. It also gave a TGI (HT29 colon) of 21.6 µM, a GI50 (IGROV1 ovarian) of 26.2 µM and a TGI (IGROV1 ovarian) greater than 82.4 µM. The GI50 (K-562 leukemia) was 0.117 µM, the TGI (K-562 leukemia) was greater than 100 µM and the GI50 (KM12 colon) was less than 0.0248 µM. It also gave a TGI (KM12 colon) greater than 66.8 µM, a TGI (LOX IMVI melanoma) greater than 100 µM and a GI50 (M14 melanoma) of 0.0328 µM. The TGI (M14 melanoma) was greater than 100 µM, the GI50 (MALME-3M melanoma) was 7.19 µM and the TGI (MALME-3M melanoma) was greater than 52.7 µM. For the same compound, the GI50 (MCF7 breast) was 0.765 µM, the TGI (MCF7 breast) was greater than 100 µM and the GI50 (MDA-MB-231 breast) was 29.6 µM. It also gave a TGI (MDA-MB-231 breast) greater than 100 µM, a GI50 (MDA-MB-435) of less than 0.0192 µM and a TGI (MDA-MB-435) greater than 100 µM. It also gave a GI50 (MOLT-4 leukemia) of 9.94 µM, a TGI (MOLT-4 leukemia) greater than 58.2 µM and a GI50 (NCI-H226 lung) of 4.26 µM. The TGI (NCI-H226 lung) was 40.9 µM.
